Where two headings read alike, the source gives them in different places.
Legend:
Assay type in all cases: in vivo
Thlaspi arvense (THLAR) = assay: greenhouse post-emergence herbicidal activity on THLAR
Experimental: (§1) The test plants have been seeded, separately for each species, in plastic containers in sandy loamy soil containing 5% of organic matter.
(§2) For the post emergence treatment, the plants were first grown to the 2 leaf station (GS 12). Here, the herbicidal compositions were suspended or emulsified in water as distribution medium and sprayed using finely distributing nozzels.
(§3) The plants have been cultivated due to there individual requirements at 10-25° C. and 20-35° C. The plants were irrigated due to there necessity.
(§4) The respective herbicides A and/or safener were formulated as 10% by weight strength suspension concentrate and introduced to the spray liquor with the amount of solvent system used for applying the active compound. Herbicide B and/or safener were used as commercially available formulations and introduced to the spray liquor with the amount of solvent system used for applying the active compound. In the examples, the solvent used was water.
(§5) In the following experiments, the herbicidal activity for the individual herbicide compounds (solo and mixture applications), the herbicidal succession was assessed 14 days after treatment (DAT).
(§6) The evaluation for the damage on undesired weeds caused by the chemical compositions was carried out using a scale from 0 to 100%, compared to the untreated control plants. Here, 0 means no damage and 100 means complete destruction of the plants.
(§7) The value E, which is to be expected if the activity of the individual compounds is just additive, was calculated using the method of S. R. Colby (1967) “Calculating synergistic and antagonistic responses of herbicide combinations”, weeds 15, p. 22ff.
(§8) [formula] where: X=effect in percent using herbicide A at an application rate a; Y=effect in percent using herbicide B at an application rate b; Z=effect in percent using herbicide C at an application rate c; E=expected effect (in %) of A+B+C at application rates a+b+c
(§9) Tables 1 to 2 relate to the herbicidal activity, in greenhouse trials, of the individual actives and the combination in post-emergence application 14 DAT.

Viola arvensis (VIOAR) = assay: greenhouse post-emergence herbicidal activity on VIOAR
Experimental: as §1, §2, §3, §4, §5, §6, §7, §8, §9

[1] = tested on: Matricaria inodora (MATIN); assay: greenhouse post-emergence herbicidal activity on MATIN; settings: Tripleurospermum inodorum
Experimental: as §1, §2, §3, §4, §5, §6, §7, §8, §9

[2] = tested on: Matricaria chamomilla (MATCH); assay: greenhouse post-emergence herbicidal activity on MATCH; settings: 672 h, read-out: % activity 28 DAT
Experimental: as §1, §2, §3
as §4, with “water. […]” for “water.”
The evaluation for the damage on undesired weeds caused by the chemical compositions was carried out using a scale from 0 to 100%, compared to the untreated control plants. […]
The value E, which is to be expected if the activity of the individual compounds is just additive, was calculated using the method of S. R. Colby (1967) “Calculating synergistic and antagonistic responses of herbicide combinations”, weeds 15, p. […]

[3] = tested on: Mercurialis annua (MERAN); assay: greenhouse post-emergence herbicidal activity on MERAN
Experimental: as §1, §2, §3, §4, §5, §6, §7, §8, §9

Papaver rhoeas (PAPRH) = assay: greenhouse post-emergence herbicidal activity on PAPRH
Experimental: as §1, §2, §3, §4, §5, §6, §7, §8, §9

[4] = tested on: Capsella bursa-pasturis (CAPBP); assay: greenhouse post-emergence herbicidal activity on CAPBP
Experimental: as §1, §2, §3, §4, §5, §6, §7, §8, §9

Nc1cc(Cl)nc(C(=O)O)c1Cl [aminopyralid, 4-amino-3,6-dichloropyridine-2-carboxylic acid]
inhibition at 2.5 g/ha (Thlaspi arvense (THLAR); read-out: % activity): 30% | inhibition at 2.5 g/ha (Viola arvensis (VIOAR); read-out: % activity): 10% | inhibition at 5 g/ha (Viola arvensis (VIOAR); read-out: % activity): 10% | inhibition at 2.5 g/ha ([1]; read-out: % activity): 35% | inhibition at 5 g/ha ([1]; read-out: % activity): 60% | inhibition at 2.5 g/ha [2]: 40% | inhibition at 5 g/ha [2]: 75% | inhibition at 2.5 g/ha ([3]; read-out: % activity): 70% | inhibition at 2.5 g/ha (Papaver rhoeas (PAPRH); read-out: % activity): 0% | inhibition at 5 g/ha (Papaver rhoeas (PAPRH); read-out: % activity): 15% | inhibition at 2.5 g/ha ([4]; read-out: % activity): 0% | inhibition at 5 g/ha ([4]; read-out: % activity): 10% | inhibition at 10 g/ha ([4]; read-out: % activity): 25%

COCc1cnc(C2=NC(C)(C(C)C)C(=O)N2)c(C(=O)O)c1 (racemic) [imazamox, 2-[(RS)-4-isopropyl-4-methyl-5-oxo-2-imidazolin-2-yl]-5-methoxymethylnicotinic acid]
inhibition at 20 g/ha (Thlaspi arvense (THLAR); THLAR, solo application, use rate 20 g ai/ha): 90% | inhibition at 20 g/ha (Viola arvensis (VIOAR); VIOAR, solo application, use rate 20 g ai/ha): 0% | inhibition at 20 g/ha ([1]; MATIN, solo application, use rate 20 g ai/ha): 65% | inhibition at 20 g/ha ([3]; MERAN, solo application, use rate 20 g ai/ha): 90% | inhibition at 20 g/ha (Papaver rhoeas (PAPRH); PAPRH, solo application, use rate 20 g ai/ha): 35% | inhibition at 20 g/ha ([4]; CAPBP, solo application, use rate 20 g ai/ha): 90% | inhibition at 10 g/ha ([4]; Table 2, CAPBP, solo application, use rate 10 g ai/ha (imazamox), read-out: % activity): 80%

Cc1cccc(C)c1N(Cn1cccn1)C(=O)CCl [metazachlor]
inhibition at 187 g/ha (Thlaspi arvense (THLAR); THLAR, solo application, use rate 187 g ai/ha): 0% | inhibition at 187 g/ha (Viola arvensis (VIOAR); VIOAR, solo application, use rate 187 g ai/ha): 15% | inhibition at 187 g/ha ([1]; MATIN, solo application, use rate 187 g ai/ha): 60% | inhibition at 187 g/ha ([3]; MERAN, solo application, use rate 187 g ai/ha): 15% | inhibition at 187 g/ha (Papaver rhoeas (PAPRH); PAPRH, solo application, use rate 187 g ai/ha): 30% | inhibition at 187 g/ha ([4]; CAPBP, solo application, use rate 187 g ai/ha): 0%

O=C(O)c1nc(Cl)ccc1Cl [clopyralid]
inhibition at 30 g/ha ([4]; Table 2, CAPBP, solo application, use rate 30 g ai/ha): 0% | inhibition at 120 g/ha ([4]; Table 2, CAPBP, solo application, use rate 120 g ai/ha): 10%

From patent publication US8809233B2, “Ternary herbicidal compositions comprising aminopyralid and imazamox” (BASF SE, priority 2008, dated 2014)
